Each structure is given as a SMILES string. Several values for one entry are separate records, joined by “and”; a condition that tells them apart may be missing. Equal values may be shown once.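 Five compound concentrations were applied to cells in 96-well plates for 48 hours; endpoints were derived by simple linear interpolation of the resulting dose-response curve. GI50 is the concentration that inhibits growth by half. TGI: concentration producing complete growth inhibition.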 Bounds are passed on as bounds.

The values below come from PubChem BioAssay (NCI).

What all share (assay): inhibition of tumour cell growth, NCI panel, 48 h
Assay [1] deals with EKVX NSCLC.
Assay [2] deals with SK-MEL-28 melanoma.
For assay [3], the system named is HT29 colon.
In assay [4] the test system is OVCAR-8 ovarian.
Assay [5] relates to U251 CNS.
The subject of assay [6] is SW-620 colon.
The test system of assay [7] is LOX IMVI melanoma.
The test system of assay [8] is OVCAR-4 ovarian.
Assay [9] deals with NCI/ADR-RES ovarian.
The subject of assay [10] is MDA-MB-435.
Assay [11] relates to TK-10 renal.
The subject of assay [12] is K-562 leukemia.

For `CCOC(=O)c1cc(C2=CCNC2=O)c(-c2cc(C)no2)[nH]1`, the TGI in assay [1], in [2], in assay [3], in assay [4], in assay [5] and in assay [6] was more than 100 µM each time. Moreover, the TGI in assay [7], in assay [8], in assay [9], in assay [10], in assay [11] and in assay [12] was more than 100 µM throughout.
As for `Clc1cc2nc(C3CCCCO3)[nH]c2cc1Cl` (stereo not given), the TGI is more than 100 µM in assay [1]; more than 100 µM in assay [2]; 25.8 µM in [3]; more than 73 µM in assay [4]; more than 96.7 µM in assay [5]; more than 100 µM in [6]. For the same molecule, the TGI in [7] is more than 100 µM; in [8] it was more than 100 µM; in [9], more than 52.1 µM; in assay [10], more than 44.6 µM; in assay [11], more than 100 µM; in assay [12], more than 100 µM.
For `O=C(c1cc(Cl)cc(Cl)c1)N(Cc1cccnc1)C(=S)N(Cc1cccnc1)C(=O)c1cc(Cl)cc(Cl)c1`, the TGI is more than 100 µM in assay [1]; more than 100 µM in [2]; more than 100 µM in assay [3]; 79.5 µM in assay [4]; 61.3 µM in [5]; more than 100 µM in assay [6]. For the same molecule, the TGI in [7] is more than 100 µM; in [8], 89.6 µM; in assay [9], more than 100 µM; in [10] it was more than 100 µM; in assay [11], 89.6 µM; in assay [12], more than 100 µM.
In the case of `CC[C@@]1(O)C(=O)OCc2c1cc1n(c2=O)Cc2cc3c(CN(C)C)c(O)ccc3nc2-1`, the GI50 in assay [1] was 0.452 µM and 0.468 µM and 2.16 µM; in assay [2], 0.299 µM and 1.36 µM; in assay [3], 0.0669 µM and 0.0589 µM and 0.24 µM; in assay [8], 0.319 µM and 0.812 µM and 0.571 µM; in assay [9] it was 0.0737 µM and 0.355 µM and 0.105 µM; in [10], 0.0713 µM and 0.108 µM and 0.0243 µM. Also, the TGI in assay [3] was 8.1 µM and 20.2 µM and 6.7 µM; in assay [7], 362 nM [middle of 4 runs]; in [9], 3.22 µM and 19.7 µM and 4.78 µM; in assay [11] it was 14.2 µM and 64.8 µM and 88.7 µM.
Regarding `CC1=NN(c2cccc(Cl)c2)C2(C1=Cc1cccs1)C(Cl)C(=O)N2c1nc2ccccc2s1` (stereo not given), the TGI in assay [1] was 42.8 µM; in assay [2], more than 100 µM; in assay [3], 46 µM; in assay [4], 48.2 µM; in assay [5] it was 30.7 µM; in [6] it was more than 100 µM. The TGI in [7] was 42.1 µM; in assay [8] it was more than 100 µM; in assay [9] it was 45.4 µM; in [10] it was more than 100 µM; in assay [11], 66.3 µM; in assay [12], 72.4 µM.
As for `Clc1ccc(OCc2nnc3sc(SSc4nn5c(COc6ccc(Cl)cc6)nnc5s4)nn23)cc1`, the TGI in assay [1], in [2], in assay [3], in assay [4], in [5] and in assay [6] was more than 100 µM each time. The TGI in [7], in assay [8], in assay [9], in [10], in [11] and in assay [12] was more than 100 µM in each case. Further, the GI50 in [8] is 46.7 µM; in assay [11], 73.2 µM.
Turning to `O=C(CCc1ccc(O)c(O)c1)NCCc1ccccc1`, the TGI is more than 100 µM in [1]; more than 100 µM in [2]; more than 72.2 µM in [3]; more than 100 µM in assay [4]; more than 100 µM in assay [5]; more than 100 µM in assay [6]. Further, the TGI in [7] was more than 100 µM; in assay [8], more than 54.2 µM; in [9] it was more than 100 µM; in [10] it was 29.3 µM; in assay [11], more than 100 µM; in assay [12], 49.6 µM.
As for `COC(O)C(=O)c1c2c(cc3c1CCC3)CCC2` (stereo not given), the TGI in assay [1], in [2], in [3], in [4], in assay [5] and in [6] was more than 100 µM each time. The TGI in assay [7], in assay [8], in [9], in assay [10], in [11] and in assay [12] was more than 100 µM each time.
For the molecule `O=C1C=CC(=O)c2c(O)c(NCCO)c(Cl)c(O)c21`, the TGI was more than 10 µM in [1]; 3.65 µM in assay [2]; 7.43 µM in assay [3]; more than 10 µM in assay [4]; more than 10 µM in assay [5]; 5.11 µM in [6]. Also, the TGI is 3 µM in [7]; 1.49 µM in [8]; more than 10 µM in assay [9]; 4.23 µM in assay [10]; more than 10 µM in [11]; 8.23 µM in [12].
`C/C(=N\Nc1nc2ccccc2o1)c1ncccn1`: the TGI in assay [1] was 14.1 µM; in [2], 28.6 µM; in assay [3], 45.4 µM; in assay [4], 0.404 µM; in assay [5] it was 14.8 µM; in [6] it was 28.3 µM. The TGI in assay [7] is 0.199 µM; in assay [8], 10.2 µM; in assay [9] it was less than 0.0335 µM; in assay [10] it was 23.4 µM; in [11], 18.2 µM.
Regarding `O=c1sc(Nc2ccc3ccccc3c2Cl)nc2ccccc12`, the TGI in [1], in [2], in assay [3], in assay [5], in assay [6] and in assay [7] was more than 100 µM each time. Moreover, the TGI in [8], in [9], in assay [10], in [11] and in assay [12] was more than 100 µM each time.
